Some test systems named below: Escherichia coli; Saccharomyces cerevisiae; Pseudomonas putida; Candida albicans; Serratia marcescens; Candida krusei CBS 573; Aeromonas hydrophila; Vibrio fluvialis; Streptococcus pyogenes; Staphylococcus aureus; Vibrio parahaemolyticus; Vibrio alginolyticus; Escherichia coli SBS 363; Candida albicans MDM8; Micrococcus luteus A270.
Common to all, as to test: ≥ marks a high value that may be exact or a test limit, other limits are often not marked, values filed in µg/mL are converted to µM
For experiment [1], the system named is Salmonella enterica subsp. enterica serovar Typhimurium ATCC 14028.
Experiment [2] has as its system Klebsiella pneumoniae ATCC 10031.
The test system of experiment [3] is Shigella dysenteriae ATCC 9752.
Experiment [4] concerns Bacillus subtilis KCTC 1021.
For experiment [5], the system named is Staphylococcus epidermidis ATCC 12228.
The test system of experiment [6] is Pseudomonas aeruginosa ATCC 9027.
Experiment [7] concerns Proteus mirabilis ATCC 25933.
The test system of experiment [8] is Micrococcus luteus ATCC 4698.
Experiment [9] relates to Candida parapsilosis CBS 604.
Experiment [10] concerns Candida albicans ATCC 10231.
Experiment [11] has as its system Saccharomyces cerevisiae SZMC 0644.
In experiment [12] the test system is Streptococcus sanguinis ATCC 10556.
Experiment [13] concerns Staphylococcus aureus ATCC 25923.
For experiment [14], the system named is Escherichia coli ATCC 25922.
Experiment [15] has as its system Aggregatibacter actinomycetemcomitans ATCC 29522.
For experiment [16], the system named is Fusarium solani MTCC 10158.
Experiment [17] has as its system Streptococcus gordonii ATCC 10558.
Experiment [18] relates to Streptococcus mutans UA159.
For experiment [19], the system named is Streptococcus mutans GS-5.
For experiment [20], the system named is Streptococcus sanguinis ATCC 49295.

Converted amounts (≈) assume the structure as drawn. “And” between values parts separate entries of the source, which are not always exact repeats. Equal values may be shown once.

For `CC[C@H](C)[C@@H]1NC(=O)[C@H](C)NC(=O)[C@@H](NC(=O)[C@H](Cc2ccccc2)NC(=O)[C@@H](NC(=O)[C@H](CO)NC(=O)[C@@H]2CCCN2C(=O)[C@H](CC(C)C)NC(=O)[C@@H](NC(=O)[C@H](CCCCN)NC(=O)[C@H](CO)NC(=O)[C@H](C)NC(=O)[C@@H](NC(=O)[C@H](CCCCN)NC(=O)[C@H](Cc2ccccc2)NC(=O)[C@H](CC(C)C)NC(=O)[C@H](C)NC(=O)CNC(=O)[C@H](CC(C)C)NC(=O)[C@@H](N)Cc2ccccc2)C(C)C)C(C)C)C(C)C)CSSC[C@@H](C(=O)O)NC(=O)[C@H](CCCCN)NC(=O)[C@H](CCCCN)NC(=O)[C@H]([C@@H](C)O)NC1=O` [FLGALFKVASKVLPSVFCAITKKC], the MIC was 77.8 µM (≈ 200 µg/mL) in [1]; 19.4 µM (≈ 50 µg/mL) in [2]; 19.4 µM (≈ 50 µg/mL) in experiment [3]; 3.89 µM (≈ 9.99 µg/mL) in [4]; 3.89 µM (≈ 9.99 µg/mL) in experiment [5]; 38.9 µM (≈ 99.9 µg/mL) in experiment [6]. For the same compound, the MIC in [7] is at least 77.8 µM; in the experiment with Escherichia coli, 19.4 µM (≈ 50 µg/mL); in [8], 0.972 µM (≈ 2.5 µg/mL); against Saccharomyces cerevisiae, 19.4 µM (≈ 50 µg/mL); with Pseudomonas putida, 19.4 µM (≈ 50 µg/mL); in the experiment with Candida albicans, 19.4 µM (≈ 50 µg/mL). The MIC against Serratia marcescens is at least 77.8 µM.
For the compound `CC[C@H](C)[C@H](N)C(=O)N[C@@H](C)C(=O)NCC(=O)N[C@@H](C)C(=O)N[C@@H](Cc1cnc[nH]1)C(=O)N[C@@H](CCCCN)C(=O)N[C@H]1CSSC[C@@H](C(=O)N[C@@H](CC(N)=O)C(=O)N[C@@H](CO)C(=O)N2CCC[C@H]2C(=O)N[C@@H](CC(N)=O)C(=O)O)NC(=O)[C@@H]2CSSC[C@H](NC(=O)[C@@H]3CCCN3C(=O)[C@H](CCCCN)NC1=O)C(=O)N[C@@H](Cc1ccc(O)cc1)C(=O)NCC(=O)N[C@@H](Cc1ccc(O)cc1)C(=O)N[C@@H](CCCCN)C(=O)N[C@@H]([C@@H](C)O)C(=O)N[C@@H](CC(N)=O)C(=O)N[C@@H](CO)C(=O)N2` [IAGAHKCKPCYGYKTNSCCNSPN], the MIC (in experiment [9]; in the experiment with Candida krusei CBS 573; in experiment [10]; in [11]) was 20.3 µM (≈ 49.9 µg/mL) throughout.
On to `CC[C@H](C)[C@H](NC(C)=O)C(=O)N[C@@H](Cc1c[nH]c2ccccc12)C(=O)N[C@@H](CC(C)C)C(=O)N[C@H](C(=O)N[C@@H](C)C(=O)N[C@@H](CC(C)C)C(=O)N[C@@H](CCCCN)C(=O)N[C@@H](Cc1ccccc1)C(=O)N[C@@H](CC(C)C)C(=O)NCC(=O)N[C@@H](CCCCN)C(=O)N[C@@H](CC(N)=O)C(=O)N[C@@H](CC(C)C)C(=O)NCC(=O)N[C@@H](CCCCN)C(=O)N[C@@H](CC(C)C)C(=O)N[C@@H](C)C(=O)N[C@@H](CCCCN)C(=O)N[C@@H](CCC(N)=O)C(=O)N[C@@H](CCC(N)=O)C(=O)N[C@@H](CC(C)C)C(=O)N[C@@H](C)C(=O)N[C@@H](CCCCN)C(=O)N[C@@H](CC(C)C)C(N)=O)[C@@H](C)O` [IWLTALKFLGKNLGKLAKQQLAKL], for which the MIC was 5.7 µM (≈ 15.6 µg/mL) in experiment [12], 2.85 µM (≈ 7.8 µg/mL) in experiment [13], 0.71 µM (≈ 1.94 µg/mL) in experiment [14] and 11.4 µM (≈ 31.2 µg/mL) in experiment [15].
Consider `CC[C@H](C)[C@H](NC(=O)[C@H](C)NC(=O)[C@H](CC(=O)O)NC(=O)[C@H](CCCN=C(N)N)NC(=O)[C@@H](NC(=O)[C@@H](N)CCCN=C(N)N)[C@@H](C)CC)C(=O)N[C@@H](C)C(=O)N[C@@H](Cc1cnc[nH]1)C(=O)NCC(=O)N[C@@H](Cc1ccc(O)cc1)C(=O)N[C@H](C(=O)N[C@H](C(=O)N[C@@H](CC(=O)O)C(=O)N[C@@H](CCCCN)C(=O)N[C@H](C(=O)O)C(C)C)C(C)C)[C@@H](C)CC` [RIRDAIAHGYIVDKV], for which the MIC with Aeromonas hydrophila was 18.1 µM (≈ 31.3 µg/mL); against Vibrio fluvialis, at least 72.4 µM; against Streptococcus pyogenes, at least 72.4 µM; against Escherichia coli, over 145 µM; in the experiment on Staphylococcus aureus, over 145 µM; with Vibrio parahaemolyticus it was at least 145 µM. The MIC with Vibrio alginolyticus turned out to be 18.1 µM (≈ 31.3 µg/mL).
As to `NCCCC[C@H](NC(=O)[C@H](CCCCN)NC(=O)[C@H](CCCN=C(N)N)NC(=O)[C@H](CCCN=C(N)N)NC(=O)[C@H](CCCN=C(N)N)NC(=O)[C@H](CCCN=C(N)N)NC(=O)[C@H](CCC(N)=O)NC(=O)[C@H](CCCN=C(N)N)NC(=O)[C@H](CCCN=C(N)N)NC(=O)[C@H](CCCCN)NC(=O)[C@H](CCCCN)NC(=O)[C@@H](N)CCCN=C(N)N)C(=O)N[C@@H](CCCN=C(N)N)C(=O)N[C@@H](CCCN=C(N)N)C(=O)N[C@@H](CCC(N)=O)C(=O)N[C@@H](CCCN=C(N)N)C(=O)N[C@@H](CCCN=C(N)N)C(=O)N[C@@H](CCCN=C(N)N)C(=O)O` [RKKRRQRRRRKKRRQRRR], in experiment [16], the MIC was 7.07 µM and 21.2 µM.
As for `CC[C@H](C)[C@H](NC(=O)[C@H](CC(C)C)NC(=O)[C@@H]1CCCN1C(=O)[C@H](CC(C)C)NC(=O)[C@H](CC(C)C)NC(=O)[C@@H](N)CO)C(=O)N[C@@H](CCCN=C(N)N)C(=O)N[C@@H](CCCCN)C(=O)N[C@@H](CC(C)C)C(=O)N[C@H](C(=O)N[C@H](C(N)=O)[C@@H](C)O)[C@@H](C)CC` [SLLPLIRKLIT], the MIC with Escherichia coli SBS 363 came out at 3.12 µM (≈ 3.95 µg/mL); with Candida albicans MDM8, 1.56 µM (≈ 1.97 µg/mL); in the experiment on Micrococcus luteus A270 it was 1.56 µM (≈ 1.97 µg/mL).
Turning to `CC(C)C[C@H](NC(=O)[C@H](CCCN=C(N)N)NC(=O)[C@H](Cc1ccccc1)NC(=O)[C@H](Cc1ccccc1)NC(=O)[C@@H](N)[C@@H](C)O)C(=O)N[C@@H](Cc1ccccc1)C(=O)N[C@@H](CC(N)=O)C(=O)N[C@@H](CCCN=C(N)N)C(=O)N[C@@H](CO)C(=O)N[C@@H](Cc1ccccc1)C(=O)N[C@H](C(=O)NCC(=O)N[C@@H](CCCN=C(N)N)C(=O)N[C@@H](CCCN=C(N)N)C(=O)N[C@@H](CCCN=C(N)N)C(=O)N[C@@H](CCCN=C(N)N)C(=O)N[C@@H](CO)C(=O)N[C@H](C(=O)N[C@@H](CCC(N)=O)C(=O)N[C@@H](Cc1c[nH]c2ccccc12)C(=O)N[C@@H](CS)C(=O)N[C@@H](C)C(=O)O)C(C)C)[C@@H](C)O` [TFFRLFNRSFTGRRRRSVQWCA], the MIC was 17.8 µM (≈ 49.8 µg/mL) in experiment [17], 3.82 µM (≈ 10.7 µg/mL) in [18], 4.46 µM (≈ 12.4 µg/mL) in [19] and at least 35.7 µM in experiment [20].

The values are drawn from DBAASP.
